According to US9879010B2, “Pyrrolo[2,3-b]pyridin-4-yl-amines and pyrrolo[2,3-b] pyrimidin-5-yl-amines as Janus kinase inhibitors” (Incyte Corporation, priority 2004, dated 2018):

Key:
[1] = test system: murine skin contact delayed-type hypersensitivity (DTH) response; experiment: Murine DTH model for dermatitis, ear swelling; assay type: in vivo, mice
Experimental: Certain compounds herein were also tested for their efficacies (of inhibiting Jak targets) in the T-cell driven murine delayed hypersensitivity test model. The murine skin contact delayed-type hypersensitivity (DTH) response is considered to be a valid model of clinical contact dermatitis, and other T-lymphocyte mediated immune disorders of the skin, such as psoriasis (Immunol Today. 1998 January; 19(1):37-44). Murine DTH shares multiple characteristics with psoriasis, including the immune infiltrate, the accompanying increase in inflammatory cytokines, and keratinocyte hyperproliferation. Furthermore, many classes of agents that are efficacious in treating psoriasis in the clinic are also effective inhibitors of the DTH response in mice (Agents Actions. 1993 January; 38(1-2):116-21).
Test compound 3-{(3R,4R)-4-methyl-3-[methyl-(7H-pyrrolo[2,3-d]pyrimidin-4-yl)amino]-piperidin-1-yl}-3-oxo-propionitrile (see, e.g., WO 01/42246, WO 02/00661, or WO 03/48162) was administered continuously using mini-osmotic pumps to deliver the compound at 150 mg/kg/d. The inflammatory response was monitored by measuring the ear thickness prior to and after immune challenge. Differences in ear thickness were calculated for each mouse and then averaged for the group. Comparisons were made between vehicle and the treated groups in the context of the negative controls (challenged without sensitization) and therapeutic positive control mice (treated with dexamethasone or other efficacious agent).
A further murine DTH experiment was conducted by treating mice with 3-{(3R,4R)-4-methyl-3-[methyl-(7H-pyrrolo[2,3-d]pyrimidin-4-yl)amino]-piperidin-1-yl}-3-oxo-propionitrile either systemically or topically (3%, BID) after the sensitization phase was complete.

[2] = test system: STAT3; experiment: Immunohistochemistry of ear sections in murine DTH model; assay type: in vivo, mice; conditions: after the sensitization phase
Experimental: To determine if topical administration of the test compound was sufficient to inhibit activation of the Jak-STAT pathway, immunohistochemistry was carried out on fixed tissues.

[3] = test system: NOD mouse model of autoimmune type 1 diabetes; conditions: cited from earlier work
[4] = test system: myeloid dendritic cells (DCs); conditions: CD40-induced maturation of myeloid DCs; cited from earlier work
[5] = test system: IL-6-dependent MM cell lines; conditions: cited from earlier work
[6] = systemic, continuous by mini-osmotic pumps, 150 mg/kg/d

For `C[C@@H]1CCN(C(=O)CC#N)C[C@@H]1N(C)c1ncnc2[nH]ccc12` [3-{(3R,4R)-4-methyl-3-[methyl-(7H-pyrrolo[2,3-d]pyrimidin-4-yl)amino]-piperidin-1-yl}-3-oxo-propionitrile], the “inhibition of ear swelling” value ([1]; systemic administration during the challenge phase, after sensitization phase complete (FIG. 1)) was > 50%, the “histological analysis of hematoxolyin and eosin stained tissue sections” value [1, 6] was “near complete inhibition of ear swelling” and the “inhibition of ear swelling” value [1, 6] was 95%. The “inhibition of ear swelling” value ([1]; topical administration (3%, BID) during the challenge phase, after sensitization phase complete (FIG. 1)) was > 50%, the “number of infiltrating cells” value ([2]; systemic administration) was “visibly reduced” and the “phosphorylation of STAT3 in all cell types” value ([2]; systemic administration) was “inhibited”. For the same molecule, the “number of infiltrating cells” value ([2]; topical administration) was “visibly reduced” and the “phosphorylation of STAT3 in all cell types” value ([2]; topical administration) was “inhibited”.
In the case of `COc1cc2ncnc(Nc3ccc(O)cc3)c2cc1OC` [JANEX-1], the onset of diabetes [3] is given as “delayed the onset of diabetes”.
For `COc1cc2ncnc(Nc3ccc(O)c(Br)c3)c2cc1OC` [WHI-P-154], the “CD40-induced JAK3 activity, costimulatory molecule expression, IL-12 production, allogeneic stimulatory capacity” value [4] is given as “prevented these effects”.
For `N#C/C(=C\c1ccc(O)c(O)c1)C(=O)NCc1ccccc1` [tyrphostin AG490], the “JAK2 kinase activity and ERK2 and STAT3 phosphorylation” value [5] is listed as “inhibited”, the apoptosis [5] is listed as “induced” and the cell proliferation [5] is listed as “suppressed”.
